Assay results reported in patent US20220054640A1, “COMPOSITIONS AND METHODS FOR THE DELIVERY OF THERAPEUTIC AGENTS ACROSS THE ROUND WINDOW MEMBRANE” (Decibel Therapeutics, Inc., priority 2018, published 2022).
Like-named read-outs stand apart in the source and are kept apart here. Values belong to the molecule of their own block, whether it stands above or below them. Ends that are not written are not given here. Peptide text beside a SMILES is read from it.

Assays:
ABR/hearing testing = type: in vivo, guinea pig
Description: Prior to ABR recording, the tympanic membrane was inspected for otitis media using a surgical microscope. Animals with otitis media were excluded from the analysis. A TDT RZ6 system was used to record the auditory brainstem response (ABR). Animals were anaesthetized with zoletil (20 mg/kg, I.M.) and placed in a soundproof chamber. Three stainless needle recording electrodes were inserted just under the skin and connected to the appropriate input on the PA4LI low impedance headstage: Channel 1: Ipsilateral ear (same side as stimulus delivery); Reference: contralateral ear; Ground: Vertex (base of skull). A computer-controlled TDT RZ6 System was used to generate the auditory pure tone and power amplified before fed to a closed-field speaker to deliver sound stimuli. The same pure tone stimuli were repeated 512 times, the sound pressure levels were increased in a step of 10 dB SPL (5 dB around threshold) from 20 dB SPL to 90 dB SPL after every 512 repeated trials. The lowest sound level which induced a brainstem response was regarded as the threshold. The hearing thresholds were measured at 4, 24, and 32 kHz. ABR recording was performed before surgery or dosing and on the 7th and 14th day after the formulation dosing. The ABR was recorded first from the left ear and then from the right ear.

guinea pig RWM [1] = experiment: RWM integrity after in vivo application; conditions: 21 days post trans-tympanic injection, 0.1% peptide HCl salt
Description: To assess the capacity for the RWM to recover after application of the […] peptide we record ABR thresholds with and without application of a 50 μL formulation including 0.1% […].HCL to the guinea pig RWM via trans-tympanic injection. […] Post-injection (21 days), the guinea pigs in both the […] exposed and control groups were sacrificed, and the temporal bone was removed as described in Example 5, section (a).

[2] = guinea pig, not told
[3] = cochlear perilymph exposure upon intratympanic administration; conditions: NT-3 formulation with permeation enhancer (peptide 1%)
[4] = system: tight and adherens junctions; experiment: immunohistochemical staining of tight and adherens junctions after the in vitro permeability assay; type: cell-based; conditions: 3.5 hours of incubation at 37° C., NT-3 in vehicle or with 1% peptide
Description: (§1) To further characterize the effects of peptide (XVI), the in vitro permeability assay was used to evaluate administration of NT-3 in either vehicle or 1% of peptide (XVI), as depicted in FIG. 18. In this experiment, cultures were incubated at 37° C. and 50 μL samples were collected at various time points. After 3.5 hours of incubation, the top and bottom media were collected separately and the insert was fixed for immunohistochemical staining to evaluate tight and adherens junctions.

round window membrane = experiment: in vitro permeability assay (apparent permeability, flux); type: in vitro ADME; conditions: NT-3 incubated with 1% peptide; for NT-3 apparent permeability (Papp) compared to control: FIG. 22
Description: To this end, an in vitro permeability assay was designed to test the apparent permeability of NT-3 against that of other compounds, the experimental design of which is shown in FIG. 1. After the initial formation of tight junctions, which was evaluated using transepithelial electrical resistance (TEER), 100 μL artificial perilymph (AP+) with API was added to the insert, and 500 μL AP+ was added to the bath. Cultures were incubated at 37° C. and 20 μL samples were collected at various time points.
as §1

guinea pig RWM [5] = experiment: tight junction integrity of excised RWM in ex vivo culture; type: cell-based; conditions: 1% peptide TFA salt in DMEM, 1 hour
Text: The […] peptide is hypothesized to interfere with cellular tight junctions. To assess if this mechanism is relevant to the RWM, we excise the RWM from adult guinea pigs (Elm Hill Labs, Chelmsford, Mass.) and stain for a variety of adherens and tight junction proteins. To extract the guinea pig RWM, the temporal bone was removed from freshly sacrificed guinea pig tissue and placed in PBS. An incision was then made in the roof of the bulla to expose the cochlea, followed by trimming of the temporal bone, bulla, and middle ear bones to expose the RWM. The round window niche was then removed from the cochlea and then cultured in DMEM with and without 1% […].TFA for 1 hour. This tissue was then fixed in a 4% PFA solution for 30 minutes followed by wash with PBS (3 times, 5-minute incubations). […]

[6] = background statement, test not described; cited from earlier work
[7] = background statement; cited from earlier work
[8] = listed as the peptide represented by formula (XVI)

ABR hearing test, change relative to Day 0 (ABR/hearing testing; 1 μL of 1% (w/v) peptide HCl salt in Poloxamer 407 (20% w/v), His buffer (pH6), Day 14): no change relative to Day 0
ABR threshold shift (ABR/hearing testing; 50 μL formulation including 0.1% peptide HCl salt, trans-tympanic, 7 and 14 days): no noticeable threshold shift
tight junction proteins (actin, ZO-1, alpha-catenin) in RWM (guinea pig RWM [1]): intact
Molecule: CC(C)C[C@H](NC(=O)[C@H](C)NC(=O)[C@H](CC(C)C)NC(=O)[C@H](CCCCN)NC(=O)[C@H](CC(C)C)NC(=O)[C@H](C)NC(=O)[C@H](CC(C)C)NC(=O)[C@@H](N)CCCCN)C(=O)N[C@@H](CCCCN)C(=O)N[C@@H](C)C(=O)N[C@@H](CC(C)C)C(=O)N[C@@H](CCCCN)C(=O)N[C@@H](CC(C)C)C(=O)N[C@@H](C)C(=O)N[C@@H](C)C(=O)N[C@@H](CC(C)C)C(=O)N[C@@H](CCCCN)C(=O)N[C@@H](CC(C)C)C(=O)N[C@@H](C)C(=O)O (H-KLALKLALKALKLAALKLA-OH; N-terminus and C-terminus assumed)

Molecule: OCc1ccccc1 [benzyl alcohol, reference compound]
effect of permeation enhancer on cochlear NT-3 exposure / NT-3 delivery across the round window membrane [2]: incapable of substantially improving NT-3 delivery across the round window membrane

Molecule: CC1(C)[C@@H](O[C@H]2O[C@H](C(=O)[O-])[C@@H](O)[C@H](O)[C@H]2O[C@@H]2O[C@H](C(=O)[O-])[C@@H](O)[C@H](O)[C@H]2O)CC[C@]2(C)[C@H]3C(=O)C=C4[C@@H]5C[C@@](C)(C(=O)O)CC[C@]5(C)CC[C@@]4(C)[C@]3(C)CC[C@@H]12.[K+].[K+] [dipotassium glycyrrhizinate]
effect of permeation enhancer on cochlear NT-3 exposure / NT-3 delivery across the round window membrane [3]: incapable of substantially improving NT-3 delivery across the round window membrane

NT-3 flux compared to control (round window membrane; FIG. 21): greater flux
NT-3 apparent permeability (Papp) compared to control (round window membrane): greater
NT-3 apparent permeability (Papp) compared to control (round window membrane; [8]): increased NT-3 permeability
Molecule: CC(=O)NC(CCCCN)C(=O)NC(CC(C)C)C(=O)NC(C)C(=O)NC(CC(C)C)C(=O)NC(CCCCN)C(=O)NC(CC(C)C)C(=O)NC(C)C(=O)NC(CC(C)C)C(=O)NC(CCCCN)C(=O)NC(C)C(=O)NC(CC(C)C)C(=O)NC(CCCCN)C(=O)NC(CC(C)C)C(=O)NC(C)C(=O)NC(C)C(=O)NC(CC(C)C)C(=O)NC(CCCCN)C(=O)NC(CC(C)C)C(=O)NC(C)C(N)=O (centres unmarked) [peptide (XVI)] (Ac-KLALKLALKALKLAALKLA-NH2; configuration not given here)
cell junction appearance (immunohistochemical staining) [4]: gaps could be observed between cells
cell junction appearance (immunohistochemical staining) [4, 8]: gaps were observed between cells

Molecule: KLALKLALKALKLAALKLA.TFA (also: TFA salt)
junction protein structure in RWM (guinea pig RWM [5]): disrupts occludin, ZO-1, and alpha-catenin, but not actin (as imaged via phalloidin), or beta-catenin structure

Molecule: neurotrophin-3 [NT-3]
EC50 [6]: less than 20 ng/ml
pI [7]: 9.5
cell junction appearance (immunohistochemical staining) [4]: adherens junctions appeared normal
